In US20250144067A1, “PERSONALIZED STARVATION THERAPY FOR CANCER” (Faeth Therapeutics, Inc., priority 2021, published 2025):
Like-named read-outs stand apart in the source and are kept apart here.

Tests used:
[1] = system: NCI-H292 lung cancer cells; assay: FDA drug screening, complete media vs cholesterol-free media without statin (TABLE 1); assay type: cell-based, human
[2] = system: NCI-H292 lung cancer cells; assay: FDA drug screening, complete media vs cholesterol-free media with simvastatin (TABLE 2); assay type: cell-based, human
[3] = Complete minus Cholesterol-free, greater than 0 enhanced anti-cancer activity, about 0 neutral, below 0 antagonists
[4] = NCI-H292 cells in cholesterol-free media without statin
[5] = NCI-H292 cells in complete media
[6] = NCI-H292 cells, FDA drug library screen, cholesterol-free media with simvastatin 0.04 μM
[7] = NCI-H292 cells, FDA drug library screen, complete media
[8] = complete media vs cholesterol-free media + simvastatin (0.04 μM), >0 enhanced anti-cancer activity, about 0 neutral, <0 antagonist
[9] = NCI-H292 cells, cholesterol-free media without statin
[10] = complete vs cholesterol-free media, greater than 0 enhanced anti-cancer activity, about 0 neutral, below 0 antagonists
[11] = NCI-H292 cells, FDA library drug in cholesterol-free media with simvastatin 0.04 μM
[12] = NCI-H292 cells, FDA library drug in complete media
[13] = Complete minus Cholesterol-free, >0 enhanced anti-cancer activity, about 0 neutral, <0 antagonist
[14] = NCI-H292 cells, cholesterol-free media without statin, FDA drug library screen
[15] = NCI-H292 cells, complete media, FDA drug library screen
[16] = NCI-H292 cells, cholesterol-free media with simvastatin 0.04 μM, FDA drug library screen (TABLE 2)
[17] = NCI-H292 cells, complete media, FDA drug library screen (TABLE 2)
[18] = complete media minus cholesterol-free media + simvastatin (0.04 μM), >0 enhanced anti-cancer activity, about 0 neutral, <0 antagonist
[19] = Complete minus Cholesterol-free, […]
[20] = complete media vs cholesterol-free media + simvastatin (0.04 μM), […]
[21] = NCI-H292 cells, FDA drug library screen, cholesterol-free media without statin

Molecule: O=C(NC(Cc1cc(=O)[nH]c2ccccc12)C(=O)O)c1ccc(Cl)cc1 (stereo not shown) [Rebamipide]
- Difference [1, 3]: −0.60
- Cholesterol-free [1, 4]: 1.735
- Complete [1, 5]: 1.132
- Cholesterol-free media + simvastatin (0.04 μM) [2, 6]: 1.344
- Complete Media [2, 7]: 1.19
- Difference [2, 8]: −0.15

Molecule: CN(C)CCOC(C)(c1ccccc1)c1ccc(Cl)cc1 (stereo not shown) [Chlorphenoxamine]
- Cholesterol-free [1, 9]: 1.303
- Complete ([1]; NCI-H292 cells, complete media): 0.9903
- Difference [1, 10]: −0.31
- Cholesterol-free media + simvastatin (0.04 μM) [2, 11]: 1.703
- Complete Media [2, 12]: 1.16
- Difference [2, 8]: −0.54

Molecule: C[C@@H]1CC[C@H]2[C@@H](C)C(=O)O[C@@H]3O[C@@]4(C)CC[C@@H]1[C@]32OO4 [Artemisinin]
- Difference [1, 13]: −0.06
- Cholesterol-free [1, 14]: 0.8489
- Complete [1, 15]: 0.7892
- Complete Media [2, 12]: 0.8603
- Difference [2, 8]: −0.76

Molecule: COc1ccc(C(=O)N2CCCC2=O)cc1 [Aniracetam]
- Cholesterol-free [1, 14]: 0.69
- Complete [1, 15]: 1.062
- Difference ([1]; complete vs cholesterol-free media, >0 enhanced anti-cancer activity, about 0 neutral, <0 antagonist): 0.37
- Cholesterol-free media + simvastatin (0.04 μM) [2, 16]: 1.041
- Complete Media [2, 17]: 1.006
- Difference [2, 18]: −0.04

Molecule: Cc1ncc(CO)c(CO)c1O.Cl [Pyridoxine (hydrochloride)]
- Difference [1, 19]: −0.61
- Cholesterol-free [1, 4]: 1.496
- Complete [1, 5]: 0.8868
- Cholesterol-free media + simvastatin (0.04 μM) [2, 11]: 1.33
- Complete Media [2, 12]: 0.9936
- Difference [2, 20]: −0.34

Molecule: Nc1nc(F)nc2c1ncn2[C@@H]1O[C@H](CO)[C@@H](O)[C@@H]1O [Fludarabine]
- Difference [1, 19]: −0.15
- Cholesterol-free [1, 21]: 1.174
- Complete [1, 7]: 1.022
- Cholesterol-free media + simvastatin (0.04 μM) [2, 16]: 1.255
- Complete Media [2, 17]: 1.187
- Difference ([2]; complete media minus cholesterol-free media + simvastatin (0.04 μM), […]): −0.07

Molecule: C[C@@H]1[C@@H](c2ccc(Cl)cc2)SC(=O)N1C(=O)NC1CCCCC1 [Hexythiazox]
- Difference [1, 19]: −0.16
- Cholesterol-free [1, 21]: 1.557
- Complete [1, 7]: 1.396
- Cholesterol-free media + simvastatin (0.04 μM) ([2]; NCI-H292 cells, cholesterol-free media with simvastatin 0.04 μM, […]): 0.8643
- Complete Media ([2]; NCI-H292 cells, complete media, […]): 0.9913
- Difference ([2]; complete media minus cholesterol-free media + simvastatin, […]): 0.13

Molecule: CC(O)(P(=O)(O)O)P(=O)(O)O [Etidronic acid]
- Cholesterol-free [1, 9]: 1.196
- Complete ([1]; NCI-H292 cells, complete media): 0.8527
- Difference [1, 10]: −0.34
- Cholesterol-free media + simvastatin (0.04 μM) [2, 16]: 0.8968
- Complete Media [2, 17]: 0.9014
- Difference [2, 18]: 0.00

Molecule: Pheniramine (Maleate)
- Difference [1, 3]: −0.65
- Cholesterol-free [1, 4]: 1.526
- Complete [1, 5]: 0.8791
- Cholesterol-free media + simvastatin (0.04 μM) [2, 16]: 1.33
- Complete Media [2, 17]: 1.284
- Difference [2, 18]: −0.05

Molecule: COc1ccc(O)cc1 [Mequinol]
- Difference [1, 13]: −0.26
- Cholesterol-free [1, 9]: 0.8829
- Complete ([1]; NCI-H292 cells, complete media): 0.6277
- Cholesterol-free media + simvastatin (0.04 μM) [2, 11]: 1.22
- Complete Media [2, 12]: 0.8263
- Difference [2, 8]: −0.39

Molecule: C[C@]12CC[C@@H]3c4ccc(O)cc4CC[C@H]3[C@@H]1C[C@@H](O)[C@@H]2O [Estriol]
- Cholesterol-free [1, 9]: 1.14
- Complete ([1]; NCI-H292 cells, complete media): 0.7448
- Difference [1, 10]: −0.40
- Cholesterol-free media + simvastatin (0.04 μM) [2, 6]: 0.9551
- Complete Media [2, 7]: 0.851
- Difference [2, 8]: −0.10

Molecule: CC(C)(C)CC(C)(C)c1ccc(OCCOCC[N+](C)(C)Cc2ccccc2)cc1 [Benzethonium chloride]
- Cholesterol-free [1]: 0.07505
- Complete [1]: 0.2197
- Difference [1]: 0.14
- Cholesterol-free media + simvastatin (0.04 μM) [2]: 0.6785
- Complete Media [2]: 0.4348
- Difference [2]: −0.24

Molecule: C[C@H](CCC(=O)NCCS(=O)(=O)O)[C@H]1CC[C@H]2[C@@H]3[C@H](O)C[C@@H]4C[C@H](O)CC[C@]4(C)[C@H]3CC[C@]12C [Taurochenodeoxycholic acid]
- Difference [1, 19]: −0.12
- Cholesterol-free [1, 21]: 0.9676
- Complete [1, 7]: 0.8469
- Cholesterol-free media + simvastatin (0.04 μM) ([2]; NCI-H292 cells, drug in cholesterol-free media with simvastatin 0.04 μM): 1.179
- Complete Media ([2]; NCI-H292 cells, drug in complete media): 1.003
- Difference [2, 20]: −0.18

Molecule: (S)-Flurbiprofen
- Difference [1, 3]: −0.56
- Cholesterol-free [1, 4]: 1.504
- Complete [1, 5]: 0.9454
- Cholesterol-free media + simvastatin (0.04 μM) [2, 11]: 1.832
- Difference [2, 8]: −0.79

Molecule: CO[C@H]1C[C@@H]2CC[C@@H](C)[C@@](O)(O2)C(=O)C(=O)N2CCCC[C@H]2C(=O)O[C@H]([C@H](C)C[C@@H]2CC[C@@H](OCCO)[C@H](OC)C2)CC(=O)[C@H](C)/C=C(\C)[C@@H](O)[C@@H](OC)C(=O)[C@H](C)C[C@H](C)/C=C/C=C/C=C/1C [Everolimus]
- Difference [1, 13]: −0.23
- Cholesterol-free [1, 9]: 0.8236
- Complete ([1]; NCI-H292 cells, complete media): 0.5968
- Cholesterol-free media + simvastatin (0.04 μM) [2, 16]: 0.3946
- Complete Media [2, 17]: 0.373
- Difference [2, 18]: −0.02
